Measurements as given in patent US20260193264A1, “BENZOYPARAZINE PYRAZINES AND THEIR USES” (FOGHORN THERAPEUTICS INC., priority 2022, published 2026).

How the values were obtained:
[1] = biological target: T1, HiBiT-BRM fusion protein in stable HeLa cell line (Homo sapiens, UniProt P51531); test: HiBiT-BRM cell-based degradation assay (Nano-Glo HiBiT Lytic Detection, 24 h); parameters: DC50: scale not given here; details: HeLa HiBiT-BRM cells; for DC50: read-out: BRM HiBit Degradation IC50; for BRM HiBit Degradation Maximum (%): top dose 30 μM
T1 construct: expressed in transfected cells
Procedure, shortened: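 HiBiT-tagged BRM levels in a stable HeLa line are measured after one day of compound treatment (up to 30 μM final, duplicate 10-point curves) by adding LgBiT lytic reagent and reading bioluminescence; values are expressed relative to vehicle and a 2 μM degrader control.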

[2] = biological target: T2, HiBit-BRG1 fusion protein in stable HeLa cell line expressing HiBit-BRG1 and LgBit (Homo sapiens, UniProt P51532); test: HiBiT-BRG1 cell-based degradation assay (Nano-Glo HiBiT, 24 h); details: HeLa HiBit-BRG1/LgBit cells; for Dmax / BRG1 HiBit Degradation Maximum (%): top dose 30 μM; for Dmax: read-out: BRG1 HiBit Degradation Maximum (%); for DC50: read-out: BRMG1 HiBit Degradation IC50
T2 construct: expressed in transfected cells
Procedure, shortened: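 Degradation calculated from NanoBiT luminescence relative to DMSO-treated cells (high) and cells given 2 μM known BRM/BRG1 degrader (low). HeLa cells stably expressing HiBiT-BRG1 plus LgBiT were exposed to compound for 24 h before lytic HiBiT detection.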

T2 sequence (P51532 whole entry, the tested form may be a part): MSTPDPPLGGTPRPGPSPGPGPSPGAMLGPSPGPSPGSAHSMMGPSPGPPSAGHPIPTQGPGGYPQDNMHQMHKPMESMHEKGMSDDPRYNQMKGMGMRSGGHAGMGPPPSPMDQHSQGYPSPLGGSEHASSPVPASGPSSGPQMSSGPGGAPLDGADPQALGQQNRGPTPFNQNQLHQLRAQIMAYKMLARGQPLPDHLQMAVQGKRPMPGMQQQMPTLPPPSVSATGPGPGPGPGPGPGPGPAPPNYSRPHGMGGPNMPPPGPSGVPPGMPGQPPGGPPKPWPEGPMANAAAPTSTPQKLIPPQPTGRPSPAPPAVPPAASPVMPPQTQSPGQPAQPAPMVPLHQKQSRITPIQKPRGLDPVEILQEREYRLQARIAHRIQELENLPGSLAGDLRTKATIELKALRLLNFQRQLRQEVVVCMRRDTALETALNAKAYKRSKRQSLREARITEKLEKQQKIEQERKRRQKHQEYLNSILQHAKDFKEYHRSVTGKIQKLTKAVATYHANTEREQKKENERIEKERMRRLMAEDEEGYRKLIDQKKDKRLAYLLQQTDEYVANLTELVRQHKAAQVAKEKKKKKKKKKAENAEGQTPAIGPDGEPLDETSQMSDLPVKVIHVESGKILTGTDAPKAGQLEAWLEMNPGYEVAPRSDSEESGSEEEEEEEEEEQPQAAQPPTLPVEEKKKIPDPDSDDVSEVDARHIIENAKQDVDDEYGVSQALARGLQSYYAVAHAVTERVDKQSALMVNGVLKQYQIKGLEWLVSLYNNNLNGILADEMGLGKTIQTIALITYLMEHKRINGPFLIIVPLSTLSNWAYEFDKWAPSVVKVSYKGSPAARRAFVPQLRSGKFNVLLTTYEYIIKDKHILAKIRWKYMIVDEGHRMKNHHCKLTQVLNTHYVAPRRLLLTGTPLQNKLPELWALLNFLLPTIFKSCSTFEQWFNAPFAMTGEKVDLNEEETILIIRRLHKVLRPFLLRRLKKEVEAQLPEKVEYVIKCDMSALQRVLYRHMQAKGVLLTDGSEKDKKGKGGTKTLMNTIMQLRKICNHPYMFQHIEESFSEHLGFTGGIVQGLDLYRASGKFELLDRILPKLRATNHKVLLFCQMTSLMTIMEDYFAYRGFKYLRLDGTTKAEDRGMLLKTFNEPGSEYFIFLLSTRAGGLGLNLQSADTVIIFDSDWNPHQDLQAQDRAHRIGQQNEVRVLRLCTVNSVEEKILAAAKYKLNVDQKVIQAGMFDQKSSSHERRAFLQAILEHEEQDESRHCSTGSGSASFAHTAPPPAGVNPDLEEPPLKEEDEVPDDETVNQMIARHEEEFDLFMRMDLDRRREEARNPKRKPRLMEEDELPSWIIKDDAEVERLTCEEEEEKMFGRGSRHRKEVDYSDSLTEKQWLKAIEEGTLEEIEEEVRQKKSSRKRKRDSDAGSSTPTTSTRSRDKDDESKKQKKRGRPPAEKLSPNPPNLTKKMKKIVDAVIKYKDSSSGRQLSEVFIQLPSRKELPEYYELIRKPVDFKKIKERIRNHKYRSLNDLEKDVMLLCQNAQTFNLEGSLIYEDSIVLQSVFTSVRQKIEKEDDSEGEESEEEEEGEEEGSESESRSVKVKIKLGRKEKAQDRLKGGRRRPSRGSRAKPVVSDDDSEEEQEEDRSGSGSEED
T1 sequence (P51531 whole entry, the tested form may be a part): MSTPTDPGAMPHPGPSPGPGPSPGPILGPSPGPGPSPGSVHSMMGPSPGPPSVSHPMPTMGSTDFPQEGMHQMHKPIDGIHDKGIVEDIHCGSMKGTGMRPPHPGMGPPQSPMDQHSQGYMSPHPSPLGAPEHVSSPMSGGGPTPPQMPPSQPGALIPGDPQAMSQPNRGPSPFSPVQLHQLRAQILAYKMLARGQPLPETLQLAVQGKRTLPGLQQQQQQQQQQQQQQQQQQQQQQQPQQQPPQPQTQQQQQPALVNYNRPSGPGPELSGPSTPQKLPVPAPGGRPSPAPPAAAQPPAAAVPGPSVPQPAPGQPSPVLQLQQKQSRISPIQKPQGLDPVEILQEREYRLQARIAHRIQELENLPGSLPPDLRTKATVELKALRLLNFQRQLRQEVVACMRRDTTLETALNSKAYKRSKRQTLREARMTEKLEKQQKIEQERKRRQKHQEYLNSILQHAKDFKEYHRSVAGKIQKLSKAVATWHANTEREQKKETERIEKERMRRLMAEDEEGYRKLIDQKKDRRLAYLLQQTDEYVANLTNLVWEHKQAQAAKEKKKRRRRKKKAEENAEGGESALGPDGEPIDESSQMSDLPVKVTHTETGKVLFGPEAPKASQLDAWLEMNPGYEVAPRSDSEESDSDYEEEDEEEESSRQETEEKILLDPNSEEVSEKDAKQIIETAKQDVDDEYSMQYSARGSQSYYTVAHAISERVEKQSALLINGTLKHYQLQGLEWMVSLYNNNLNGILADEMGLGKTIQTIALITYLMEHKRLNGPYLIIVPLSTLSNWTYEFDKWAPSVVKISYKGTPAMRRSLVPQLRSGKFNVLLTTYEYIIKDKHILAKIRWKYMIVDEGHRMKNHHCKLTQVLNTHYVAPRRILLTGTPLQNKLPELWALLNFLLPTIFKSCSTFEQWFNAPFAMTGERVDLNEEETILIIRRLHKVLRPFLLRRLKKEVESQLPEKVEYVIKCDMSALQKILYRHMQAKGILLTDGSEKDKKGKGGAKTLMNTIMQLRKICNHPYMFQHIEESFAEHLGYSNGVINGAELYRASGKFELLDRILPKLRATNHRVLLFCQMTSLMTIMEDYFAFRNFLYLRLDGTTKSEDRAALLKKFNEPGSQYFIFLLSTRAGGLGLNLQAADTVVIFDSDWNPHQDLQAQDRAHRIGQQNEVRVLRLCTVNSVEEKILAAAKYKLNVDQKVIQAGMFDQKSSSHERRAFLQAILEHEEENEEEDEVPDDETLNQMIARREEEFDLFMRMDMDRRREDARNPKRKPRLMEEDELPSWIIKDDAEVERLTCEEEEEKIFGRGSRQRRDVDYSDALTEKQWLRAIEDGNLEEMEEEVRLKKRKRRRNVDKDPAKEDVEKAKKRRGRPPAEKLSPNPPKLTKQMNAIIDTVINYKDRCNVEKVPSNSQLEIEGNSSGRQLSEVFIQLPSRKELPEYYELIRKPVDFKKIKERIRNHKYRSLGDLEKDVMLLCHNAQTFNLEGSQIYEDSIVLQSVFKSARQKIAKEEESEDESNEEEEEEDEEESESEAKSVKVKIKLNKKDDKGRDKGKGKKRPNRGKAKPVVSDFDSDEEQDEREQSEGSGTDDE

SMILES	DC50 [1] [nM]	Dmax [2] [%]	DC50 [2] [nM]	BRM HiBit Degradation Maximum (%) [1]	BRG1 HiBit Degradation Maximum (%) [2]
Cc1ncsc1-c1ccc([C@H](C)NC(=O)[C@@H]2C[C@@H](O)CN2C(=O)[C@@H](c2cc(-c3cnc(N4CCC(c5ccc6nnc(-c7ccccc7O)cc6c5)CC4)nc3)no2)C(C)C)cc1 [Compound 42]	> 10	< 50		A (“A” indicates maximum degradation ≥75%)	
Cc1ncsc1-c1ccc([C@H](C)NC(=O)[C@@H]2C[C@@H](O)CN2C(=O)[C@H](c2cc(-c3cnc(N4CC(c5ccc6nnc(-c7ccccc7O)cc6c5Cl)C4)nc3)no2)C(C)C)cc1 [Compound 43]	> 100	< 50		A (“A” indicates maximum degradation ≥75%)	
Cc1ncsc1-c1ccc([C@H](C)NC(=O)[C@@H]2C[C@@H](O)CN2C(=O)[C@@H](c2cc(-c3cnc(N4CC(c5ccc6nnc(-c7ccccc7O)cc6c5Cl)C4)nc3)no2)C(C)C)cc1 [Compound 44]	> 10	< 50		A (“A” indicates maximum degradation ≥75%)	
Cc1ncsc1-c1ccc([C@H](C)NC(=O)[C@@H]2C[C@@H](O)CN2C(=O)[C@@H](c2cc(N3CCC(C(=O)N4CC(c5ccc6cc(-c7ccccc7O)nnc6c5)C4)CC3)no2)C(C)C)cc1 [Compound 45]	< 10	> 75	> 10	A (“A” indicates maximum degradation ≥75%)	
Cc1ncsc1-c1ccc([C@H](C)NC(=O)[C@@H]2C[C@@H](O)CN2C(=O)[C@H](c2cc(-c3cnc(N4CCN(c5ccc6cc(-c7ccccc7O)nnc6c5)CC4)nc3)no2)C(C)C)cc1 [Compound 46]	> 100			A (“A” indicates maximum degradation ≥75%)	C (“C” indicates maximum degradation <50%)
Cc1ncsc1-c1ccc([C@H](C)NC(=O)[C@@H]2C[C@@H](O)CN2C(=O)[C@@H](c2cc(-c3cnc(N4CCN(c5ccc6cc(-c7ccccc7O)nnc6c5)CC4)nc3)no2)C(C)C)cc1 [Compound 47]				A (“A” indicates maximum degradation ≥75%)	C (“C” indicates maximum degradation <50%)

Now from value to compound, other results behind:

DC50 [1] [nM]	Dmax [2] [%]	DC50 [2] [nM]	SMILES	BRM HiBit Degradation Maximum (%) [1]	BRG1 HiBit Degradation Maximum (%) [2]
< 10	> 75	< 10	Cc1ncsc1-c1ccc([C@H](C)NC(=O)[C@@H]2C[C@@H](O)CN2C(=O)[C@@H](c2cc(N3CC4(CC(c5ccc6nnc(-c7ccccc7O)cc6c5)C4)C3)no2)C(C)C)cc1 [Compound 48, (2S,4R)-4-hydroxy-1-((R)-2-(3-(6-(3-(2-hydroxyphenyl)cinnolin-6-yl)-2-azaspiro[3.3]heptan-2-yl)isoxazol-5-yl)-3-methylbutanoyl)-N-((S)-1-(4-(4-methylthiazol-5-yl)phenyl)ethyl)pyrrolidine-2-carboxamide]	A (“A” indicates maximum degradation ≥75%)	
< 10	> 75	< 10	Cc1ncsc1-c1ccc([C@H](C)NC(=O)[C@@H]2C[C@@H](O)CN2C(=O)[C@@H](c2cc(-c3cnc(N4CC[C@H](c5ccc6nnc(-c7ccccc7O)cc6c5)C4)nc3)no2)C(C)C)cc1 [Compound 49, (2S,4R)-4-hydroxy-1-((R)-2-(3-(2-((R)-3-(3-(2-hydroxyphenyl)cinnolin-6-yl)pyrrolidin-1-yl)pyrimidin-5-yl)isoxazol-5-yl)-3-methylbutanoyl)-N-((S)-1-(4-(4-methylthiazol-5-yl)phenyl)ethyl)pyrrolidine-2-carboxamide]	A (“A” indicates maximum degradation ≥75%)	
< 10	> 50		Cc1ncsc1-c1ccc([C@H](C)NC(=O)[C@@H]2C[C@@H](O)CN2C(=O)[C@@H](c2cc(-c3cnc(N4CC[C@@H](c5ccc6nnc(-c7ccccc7O)cc6c5)C4)nc3)no2)C(C)C)cc1 [Compound 50, (2S,4R)-4-hydroxy-1-((R)-2-(3-(2-((S)-3-(3-(2-hydroxyphenyl)cinnolin-6-yl)pyrrolidin-1-yl)pyrimidin-5-yl)isoxazol-5-yl)-3-methylbutanoyl)-N-((S)-1-(4-(4-methylthiazol-5-yl)phenyl)ethyl)pyrrolidine-2-carboxamide]	A (“A” indicates maximum degradation ≥75%)	
< 10	> 75	> 10	Cc1ncsc1-c1ccc([C@H](C)NC(=O)[C@@H]2C[C@@H](O)CN2C(=O)[C@@H](c2cc(-c3ccnc(N4CCC(c5ccc6cc(-c7ccccc7O)nnc6c5)CC4)n3)no2)C(C)C)cc1 [Compound 52, (2S,4R)-4-hydroxy-1-((R)-2-(3-(2-(4-(3-(2-hydroxyphenyl)cinnolin-7-yl)piperidin-1-yl)pyrimidin-4-yl)isoxazol-5-yl)-3-methylbutanoyl)-N-((S)-1-(4-(4-methylthiazol-5-yl)phenyl)ethyl)pyrrolidine-2-carboxamide]	A (“A” indicates maximum degradation ≥75%)	
< 10	> 50	> 10	Cc1ncsc1-c1ccc([C@H](C)NC(=O)[C@@H]2C[C@@H](O)CN2C(=O)[C@@H](c2cc(N3CCC4(CC3)CN(c3ccc5cc(-c6ccccc6O)nnc5c3)C4)no2)C(C)C)cc1 [Compound 53, (2S,4R)-4-hydroxy-1-((R)-2-(3-(2-(3-(2-hydroxyphenyl)cinnolin-7-yl)-2,7-diazaspiro[3.5]nonan-7-yl)isoxazol-5-yl)-3-methylbutanoyl)-N-((S)-1-(4-(4-methylthiazol-5-yl)phenyl)ethyl)pyrrolidine-2-carboxamide]	A (“A” indicates maximum degradation ≥75%)	
> 10	< 50		Cc1ncsc1-c1ccc([C@H](C)NC(=O)[C@@H]2C[C@@H](O)CN2C(=O)[C@@H](c2cc(N3CCN(c4ccc5cc(-c6ccccc6O)nnc5c4)CC3)no2)C(C)C)cc1 [Compound 54, (2S,4R)-4-hydroxy-1-((R)-2-(3-(4-(3-(2-hydroxyphenyl)cinnolin-7-yl)piperazin-1-yl)isoxazol-5-yl)-3-methylbutanoyl)-N-((S)-1-(4-(4-methylthiazol-5-yl)phenyl)ethyl)pyrrolidine-2-carboxamide]	B (“B” indicates maximum degradation ≥50%)	
> 10	< 50		Cc1ncsc1-c1ccc([C@H](C)NC(=O)[C@@H]2C[C@@H](O)CN2C(=O)[C@@H](c2cc(N3CC[C@H](c4ccc5nnc(-c6ccccc6O)cc5c4)C3)no2)C(C)C)cc1 [Compound 55, (2S,4R)-4-hydroxy-1-((R)-2-(3-((R)-3-(3-(2-hydroxyphenyl)cinnolin-6-yl)pyrrolidin-1-yl)isoxazol-5-yl)-3-methylbutanoyl)-N-((S)-1-(4-(4-methylthiazol-5-yl)phenyl)ethyl)pyrrolidine-2-carboxamide]	B (“B” indicates maximum degradation ≥50%)	
< 10	> 75	< 10	Cc1ncsc1-c1ccc([C@H](C)NC(=O)[C@@H]2C[C@@H](O)CN2C(=O)[C@@H](c2cc(-c3cnc(N4CCC5(CC4)CC(c4ccc6nnc(-c7ccccc7O)cc6c4)C5)nc3)no2)C(C)C)cc1 [Compound 56, (2S,4R)-4-hydroxy-1-((R)-2-(3-(2-(2-(3-(2-hydroxyphenyl)cinnolin-6-yl)-7-azaspiro[3.5]nonan-7-yl)pyrimidin-5-yl)isoxazol-5-yl)-3-methylbutanoyl)-N-((S)-1-(4-(4-methylthiazol-5-yl)phenyl)ethyl)pyrrolidine-2-carboxamide]	A (“A” indicates maximum degradation ≥75%)	
